Where “and” joins values, the source holds several entries; their conditions need not be identical. Equal entries are not always repeated. Where two headings read alike, the source gives them in different places.
Legend:
MDA-MB468 = test: Labelling of cells using compounds of the invention; format: cell-based
From the text: (§1) 2. Labelling of Cells Using Compounds of the Invention

WBCs = test: as above; format: cell-based
From the text: as §1

NIH 3T3 = test: as above; format: cell-based; conditions: * one cell not stained
From the text: as §1

CHO = test: as above; format: cell-based
From the text: as §1

Epithelial cells = test: as above; format: cell-based
From the text: as §1

Jurkats = test: as above; format: cell-based
From the text: as §1

U937 = test: as above; format: cell-based
From the text: as §1

Hela = test: as above; format: cell-based; conditions: * one cell stained weakly
From the text: as §1

COS 7 = test: as above; format: cell-based
From the text: as §1

Jurkat cells = conditions: centrifugation 20 min, 500×g; within 5.5 h incubation with molecule
Procedure: Respective columns from left: 1: 10 min incubation with molecule. 2: 1 h incubation with molecule. 3: 3,5 h incubation with molecule. 4: 5.5 h min incubation with molecule. Following molecules were tested: 1255: 3′-(Myristic acid)2-PEG2000-dT-Biotin-TEG-5′ INVERS. 1234: 5′-(Cholesteryl-TEG)2-Spacer C18-dT-Biotin-TEG-3′; 1248: 3′-(Cholesteryl-TEG)2-PEG2000-Fluos-Biotin-TEG-5′ INVERS; 1254: 3′-(Cholesteryl-TEG)2-SpacerC18-Fluos-Biotin-TEG-5′ INVERS. […] Centrifugation characteristics: 20 min, 500×g.
(§2) Following molecules were tested: • 1255: 3′-(Myristic acid)2-PEG2000-dT-Biotin-TEG-5′ INVERS • 1234: 5′-(Cholesteryl-TEG)2-Spacer C18-dT-Biotin-TEG-3′ • 1248: 3′-(Cholesteryl-TEG)2-PEG2000-Fluos-Biotin-TEG-5′ INVERS • 1254: 3′-(Cholesteryl-TEG)2-SpacerC18-Fluos-Biotin-TEG-5′ INVERS
(§3) Centrifugation characteristics: 20 min, 500×g.

MDA-MB468 cells = conditions: centrifugation 20 min, 500×g; within 5 h incubation with molecule
Procedure: Respective columns from left: 1: 10 min incubation with molecule. 2: 1 h incubation with molecule. 3: 3 h incubation with molecule. 4: 5 h min incubation with molecule. Following compounds for use according to the invention were tested: 1234: 5′-(Cholesteryl-TEG)2-Spacer C18-dT-Biotin-TEG-3′; 1255: 3′-(Myristic acid)2-PEG2000-dT-Biotin-TEG-5′ INVERS. […] Centrifugation characteristics: 20 min, 500×g.
Following compounds of the invention were tested: • 1234: 5′-(Cholesteryl-TEG)2-Spacer C18-dT-Biotin-TEG-3′ • 1255: 3′-(Myristic acid)2-PEG2000-dT-Biotin-TEG-5′ INVERS
as §3

white blood cells (WBCs) = conditions: for WBC per well: 300 000 WBCs/well
Procedure: Aim of this experiment: Testing of the white blood cell immobilization on a streptavidin-coated surface using different molecules of the invention. In particular, the performance of a single cholesterol-molecule and different dual-linker molecules (i.e. containing two hydrophobic moieties) was tested. In detail, immobilization of white blood cells (WBCs) on a Streptavidin-coated surface using different linker molecules was tested on a 12-well plate: 300 000 WBCs/well. This was followed by the measurement of the cell recovery rate after immobilization and washing of the cells using the Cellavista instrument (10× Nuclei Operator s9s5).

WBC [1] = test: WBC recovery rate after centrifugation (stabilization of cells, Example 5); format: cell-based; conditions: centrifugation 20 min
Procedure: (§4) Centrifugation characteristics: 10 min, 300×g.
as §4
The respective left, middle and right columns per assay represent different Experimenters 1, 2 and 3. […] Centrifugation characteristics: 10 min, 300×g. Molecule: Cholesteryl-TEG-Cholesteryl-TEG-(SpacerC18)7-Fluos-Biotin-TEG.
(§5) Following molecules were tested: 1234: 5′-(Cholesteryl-TEG)2-Spacer C18-dT-Biotin-TEG-3′; 1248: 3′-(Cholesteryl-TEG)2-PEG2000-Fluos-Biotin-TEG-5′ INVERS; 1254: 3′-(Cholesteryl-TEG)2-SpacerC18-Fluos-Biotin-TEG-5′ INVERS; 1255: 3′-(Myristic acid)2-PEG2000-dT-Biotin-TEG-5′ INVERS. […] Centrifugation characteristics: 20 min, 300×g. Respective left column: 10 min incubation with molecule. Respective middle column: 1 h min incubation with molecule. Respective right column: 2 h incubation with molecule.
Following molecules were tested: 1255: 3′-(Myristic acid)2-PEG2000-dT-Biotin-TEG-5′ INVERS; 1234: 5′-(Cholesteryl-TEG)2-Spacer C18-dT-Biotin-TEG-3′; 1248: 3′-(Cholesteryl-TEG)2-PEG2000-Fluos-Biotin-TEG-5′ INVERS; 1254: 3′-(Cholesteryl-TEG)2-SpacerC18-Fluos-Biotin-TEG-5′ INVERS. […] Centrifugation characteristics: 20 min, 500×g. Respective left column: 10 min incubation with molecule. Respective middle column: 1 h min incubation with molecule. Respective right column: 3 h incubation with molecule.
as §5, with “tested: 1255: 3′-(Myristic acid)2-PEG2000-dT-Biotin-TEG-5′ INVERS;” for “tested:”, “3′-(Cholesteryl-TEG)2-SpacerC18-Fluos-Biotin-TEG-5′” for “3′-(Cholesteryl-TEG)2-SpacerC18-Fluos-Biotin-TEG-5′ INVERS; 1255: 3′-(Myristic acid)2-PEG2000-dT-Biotin-TEG-5′”, “1000×g.” for “300×g.”
The effect of compounds of the invention on stabilizing cells and on immobilization was determined.
Centrifugation characteristics: 10 min, 300×g. A: Choleseryl-TEG-Cholesteryl-TEG-(SpacerC18)7-Fluos-Biotin-TEG.
Centrifugation characteristics: 10 min, 300×g. Molecule: Cholesteryl-TEG-Cholesteryl-TEG-(SpacerC18)7-Fluos-Biotin-TEG.
Centrifugation characteristics: 20 min, 300×g.
as §2

WBC [2] = test: Immobilization of cells, recovery rate of cells (Example 3 A and D); format: cell-based; conditions: WBCs
Procedure: In the following experiment, the recovery rate of cells was determined.

[3] = Sample 2, compound concentration: 100 pmol/10e6 WBCs
[4] = Sample 2, compound concentration: 1 nmol/10e6 WBCs

| Compound | Labelling (staining) of MDA-MB468 (MDA-MB468) | Labelling (staining) of NIH 3T3 (NIH 3T3) | Labelling (staining) of CHO (CHO) | Labelling (staining) of Epithelial cells (Epithelial cells) | Labelling (staining) of Jurkats (Jurkats) | Labelling (staining) of U937 (U937) | Labelling (staining) of Hela (Hela) | Labelling (staining) of COS 7 (COS 7) | Stability of Jurkat culture cells during centrifugation (Jurkat cells) | also measured |
| --- | --- | --- | --- | --- | --- | --- | --- | --- | --- | --- |
| CCCCCCCCCCCCCCCCCCN1C(=CC=CC2=[N+](CCCCCCCCCCCCCCCCCC)c3ccccc3C2(C)C)C(C)(C)c2ccccc21.[O-][Cl+3]([O-])([O-])[O-] [1,1′-Dioctadecyl-3,3,3′,3′-tetramethylindocarbocyanin perchlorate] | √ | √* | √ | √ | √ | √ | √ | √ | – | Labelling (staining) of WBCs (WBCs): √ not all |
| CCCCCCCCCCCCCCCCCCCCCC[N+]1=C(/C=C/C=C2/N(CCCCCCCCCCCCCC)c3ccccc3C2(C)C)C(C)(C)c2ccccc21.[I-] [PKH26] | √ | √ | √ | √ not all | √ | √ | √* | √ | – | – |
| 5′-(Cholesteryl-TEG)2-Spacer C18-dT-Biotin-TEG-3′ [compound 1234] | – | – | – | – | – | – | – | – | stable during centrifugation processes | Stability of MDA-MB468 culture cells during centrifugation (MDA-MB468 cells): stable during centrifugation processes |
| CCCCC/C=C\C/C=C\CCCCCCCCN1C(=CC=CC2=[N+](CCCCCCCC/C=C\C/C=C\CCCCC)c3ccccc3C2(C)C)C(C)(C)c2ccccc21.[O-][Cl+3]([O-])([O-])[O-] [Linol, 1,1′-dilinoleyl-3,3,3′,3′-tetramethylindocarbocyanine perchlorate] | √ | √ | √ | √ | √ | √ | √ | √ | – | – |
| 5′-(Cholesteryl-TEG)2-Spacer C18-Fluos-Biotin_TEG-3′ INVERS [29.891254] | – | – | – | – | – | – | – | – | stable during centrifugation processes | WBC per well (white blood cells (WBCs); Sample 1, first block of the table (r4-r12), footnote: 1 nmol/10e6 WBCs): 157660 and 190148 and 170850; WBC per well (white blood cells (WBCs); Sample 1, second block of the table (r13-r21), compound concentration: 1 nmol/10e6 WBCs): 244649 and 234262 and 260760; Mean (WBC per well) (white blood cells (WBCs); [3]): 197067.00; WBC per well (white blood cells (WBCs); [3]): 200184 and 205917 and 185100; Mean (WBC per well) (white blood cells (WBCs); [4]): 245376.00; WBC per well (white blood cells (WBCs); [4]): 244396 and 244304 and 247428 |
| 3′-(Myristic acid)2-PEG2000-dT-Biotin-TEG-5′ INVERS [compound 1255] | – | – | – | – | – | – | – | – | stable during centrifugation processes | Performance in WBC recovery rate after centrifugation (ranking) (WBC [1]; 300×g): followed by compound 1255; Performance in WBC recovery rate after centrifugation (ranking) (WBC [1]; 500×g): followed by molecule 1255; Stability of MDA-MB468 culture cells during centrifugation (MDA-MB468 cells): stable during centrifugation processes |
| 5′-CholesterylTEG-CholesterylTEG-PEG2000-Fluos-BiotinTEG-3′ [BMO 29.891180] | – | – | – | – | – | – | – | – | – | staining (Remarks) (WBC [2]): strong |
| 5′-CholesterylTEG-CholesterylTEG-PEG2000-Fluos-3′ [BMO 29.891133] | √ | √ | √ | √ | √ | √ | √ | √ | – | – |
